Columns and labels:
[1] = molecular target: T1, recombinant human Topoisomerase I (Homo sapiens, UniProt P11387); test: Topoisomerase I and DNA binding gel electrophoresis assay; assay type: biochemical; conditions: concentrations up to 100 mM (so in the source), versus DMSO
T1 construct: purchased TopoGEN, Inc. TG2005H
T1 sequence (P11387 1-765): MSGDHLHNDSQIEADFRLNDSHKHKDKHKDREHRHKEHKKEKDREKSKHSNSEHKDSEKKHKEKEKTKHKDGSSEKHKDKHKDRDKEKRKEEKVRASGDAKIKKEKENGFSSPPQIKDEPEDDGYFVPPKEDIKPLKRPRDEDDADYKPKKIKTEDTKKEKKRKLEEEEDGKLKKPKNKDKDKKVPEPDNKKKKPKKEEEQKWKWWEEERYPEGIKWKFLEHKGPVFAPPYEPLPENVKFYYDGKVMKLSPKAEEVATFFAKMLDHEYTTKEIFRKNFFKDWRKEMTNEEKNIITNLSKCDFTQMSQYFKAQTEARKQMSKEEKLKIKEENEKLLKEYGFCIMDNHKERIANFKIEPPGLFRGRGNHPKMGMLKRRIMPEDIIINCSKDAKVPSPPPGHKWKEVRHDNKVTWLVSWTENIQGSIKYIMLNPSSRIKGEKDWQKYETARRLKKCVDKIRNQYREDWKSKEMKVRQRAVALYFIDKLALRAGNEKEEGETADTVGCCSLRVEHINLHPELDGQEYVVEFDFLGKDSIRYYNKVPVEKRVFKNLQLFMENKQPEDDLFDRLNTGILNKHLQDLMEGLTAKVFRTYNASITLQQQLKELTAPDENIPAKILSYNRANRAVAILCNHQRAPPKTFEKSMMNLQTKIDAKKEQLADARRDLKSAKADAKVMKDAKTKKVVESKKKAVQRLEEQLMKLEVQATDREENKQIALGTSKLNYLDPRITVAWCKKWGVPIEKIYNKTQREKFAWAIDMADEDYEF
Procedure: FIG. 12: Topoisomerase I and DNA binding assay for DA5. The effect of DA5 on Topoisomerase-mediated DNA unwinding is measured through a gel electrophoresis assay (see Methods).
0.5 ug of pHOT-1 supercoiled DNA (TopoGEN, Inc. TG2030-2) was combined with 2× Topoisomerase I assay buffer (50 mM Tris-HCL (ph7.9), 1 mM EDTA, 1 mM DTT, 20% (v/v) glycerol, 50 mM NaCl), nuclease free water and either DMSO vehicle control, m-AMSA positive control (100-1000 uM; TopoGEN, Inc. […] TG2005H) was added to treatments corresponding to lanes 3-12 with 2 ul of dilution buffer (5 mM Tris-HCL (pH 7.9), 1 mM EDTA, 1 mM DTT, 50% (v/v) glycerol, 500 mM NaCl) added to control treatments lacking enzyme (lanes 2, 13 and 14). Reactions were mixed and incubated at 37° C. for 30 minutes. Reactions were terminated with the addition of 20 ul nuclease free water and 50 ul of 1-butanol (water-saturated) followed by vortex and centrifugation at 13,000 rpm for 1 minute. The lower aqueous phase was removed and added to 50 ul chloroform/isoamyl alcohol (24/1) and 50 ul of 2×STEB buffer (40% (w/v) sucrose, 100 mM Tris-HCL (pH 8), 1 mM EDTA, 0.5 mg/ml bromophenol blue) followed by mixing and centrifugation at 13,000 rpm for 1 minute. […] The gel was stained with ethidium bromide for 15 minutes followed by de-staining in distilled water for 10 minutes. Gels were exposed and images acquired using the iBrightFL1000 gel documentation system (Invitrogen).

[2] = test system: zebrafish embryos; test: Respiration rate analysis (Seahorse XF24 oxygen consumption); assay type: in vivo; conditions: embryos from 5 hpf, versus DMSO control
Procedure: Analysis of embryonic respiration was performed using a Seahorse XF24 analyzer (Agilent). Embryos at 5 hours post fertilization were arrayed in E3 media at 3 per well in a 24-well standard Seahorse plate using an isolating mesh (as in Stackley et al^72). Each plate contained four replicates of each indicated compound of interest, as well as 4 control wells receiving the equivalent DMSO as contained in the indicated compound solution, and 4 wells with no embryos present to act as a baseline for oxygen content of the media. The sample baseline was read for 5 cycles (3 minute mix, 2 minute wait, 5 minute measure), then compounds were introduced in a single 40-cycle injection phase (3 minute mix, 2 minute wait, 5 minute measure). Measurement data were exported using Seahorse software (Agilent) and averaged over 3 experimental days.

Row | SMILES | effect on Topoisomerase-mediated DNA unwinding (gel electrophoresis) [1] | respiration rate (oxygen consumption rate) [2]
1 | CC[C@@]1(O)C(=O)OCc2c1cc1n(c2=O)Cc2cc3ccccc3nc2-1 [Camptothecin, reference compound] | dose-dependent effect on the amount of circular DNA present | 
2 | CC[C@@H]1/C=C/C=C/C[C@H](C)[C@H](O)[C@](C)(O)C(=O)[C@H](C)[C@@H](O)[C@H](C)C(=O)[C@H](C)[C@@H](O)[C@H](C)/C=C/C(=O)O[C@H]2[C@@H](C)[C@@H](CC1)O[C@@]1(CC[C@@H](C)[C@@H](C[C@H](C)O)O1)[C@@H]2C [oligomycin A, reference compound] |  | exponential reduction in respiration rate stabilizing at a baseline rate

Source: US12605374B2, “Methods for drug screening and compositions useful for the inhibition of cell proliferation and/or cell survival” (The Brigham and Women's Hospital, Inc., priority 2019, dated 2026)
